These results are taken from ChEMBL document CHEMBL5532757, “Design, synthesis, and biological evaluation of 1,2,4-oxadiazole-based derivatives as multitarget anti-Alzheimer agents” (RSC Med Chem, 2024).

Where a name gives a salt, the structure may show the parent alone. Active and inactive are the calls of the source. No cut-off for these calls is given here.

Data set [1] deals with T1, Acetylcholinesterase (Homo sapiens, UniProt P22303). The data set is described as follows: Inhibition of AChE (unknown origin) using acetylthiocholine iodide as substrate incubated for 15 mins by DTNB reagent based ELISA. On the technique in general: In an ELISA, binding on a coated surface is turned into a signal by an enzyme label.
For data set [2], the target named is T2, Cholinesterase (Homo sapiens, UniProt P06276). Description: Inhibition of BChE (unknown origin) using butyrylthiocholine iodide as substrate incubated for 15 mins by DTNB reagent based ELISA.
A short description of data set [3]: Antioxidant activity assessed as DPPH radical scavenging activity measured after 30 mins by spectrophotometric analysis. In kind it is functional.
Data set [4] concerns the target T3, Amine oxidase [flavin-containing] B (Homo sapiens, UniProt P27338).
T3 sequence (P27338 whole entry): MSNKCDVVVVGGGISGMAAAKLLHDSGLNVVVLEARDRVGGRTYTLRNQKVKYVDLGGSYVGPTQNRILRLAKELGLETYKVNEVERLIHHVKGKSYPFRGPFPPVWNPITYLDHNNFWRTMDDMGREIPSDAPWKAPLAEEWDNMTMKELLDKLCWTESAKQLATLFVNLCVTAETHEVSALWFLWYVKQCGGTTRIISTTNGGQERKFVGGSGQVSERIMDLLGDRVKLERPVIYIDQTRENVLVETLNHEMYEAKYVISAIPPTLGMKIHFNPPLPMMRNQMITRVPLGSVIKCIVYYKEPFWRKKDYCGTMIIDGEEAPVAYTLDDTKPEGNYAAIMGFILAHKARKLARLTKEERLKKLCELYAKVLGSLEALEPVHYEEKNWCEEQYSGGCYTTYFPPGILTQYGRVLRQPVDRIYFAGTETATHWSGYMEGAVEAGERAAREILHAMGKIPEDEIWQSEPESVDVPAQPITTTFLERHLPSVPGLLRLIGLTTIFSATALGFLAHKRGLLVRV
Description: Inhibition of human recombinant MAO-B expressed in baculovirus infected BTI insect cells measured after 30 to 90 sec by absorbance based assay. Conditions: for inhibition (INH): human, bti, time 30-90 sec.

The target in data set [5] is T4, Amine oxidase [flavin-containing] A (Homo sapiens, UniProt P21397).
T4 sequence (P21397 whole entry): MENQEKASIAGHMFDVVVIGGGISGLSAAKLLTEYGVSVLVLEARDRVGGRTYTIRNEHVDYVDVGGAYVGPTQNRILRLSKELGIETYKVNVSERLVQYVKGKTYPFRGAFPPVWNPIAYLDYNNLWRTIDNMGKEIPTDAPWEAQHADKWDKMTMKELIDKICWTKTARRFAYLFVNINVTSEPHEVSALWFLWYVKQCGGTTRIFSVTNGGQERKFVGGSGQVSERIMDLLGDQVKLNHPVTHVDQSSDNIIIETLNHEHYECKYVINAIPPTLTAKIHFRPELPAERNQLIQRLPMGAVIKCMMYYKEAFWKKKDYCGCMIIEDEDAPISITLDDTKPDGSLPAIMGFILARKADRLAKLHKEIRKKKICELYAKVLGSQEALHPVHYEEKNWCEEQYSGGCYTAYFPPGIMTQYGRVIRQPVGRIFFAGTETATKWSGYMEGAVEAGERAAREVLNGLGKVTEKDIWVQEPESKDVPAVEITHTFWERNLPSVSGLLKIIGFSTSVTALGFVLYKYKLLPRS
The data set is described as follows: Inhibition of MAO-A (unknown origin) measured after 30 to 90 sec by absorbance based assay. To be noted: for inhibition (INH): human, time 30-90 sec.

A short description of data set [6]: Selectivity index, ratio of IC50 for inhibition of BChE (unknown origin) using butyrylthiocholine iodide as substrate to IC50 for inhibition of AChE (unknown origin) using acetylthiocholine iodide as substrate.
The target of data set [7] is T1, Acetylcholinesterase. Description: Potency index, ratio of donepezil IC50 to test compound IC50 for inhibition of AChE (unknown origin) using acetylthiocholine iodide as substrate incubated for 15 mins by DTNB reagent based ELISA.
Data set [8] addresses T1, Acetylcholinesterase. Description: Inhibition of human recombinant AChE using acetylthiocholine iodide as substrate preincubated for 5 mins followed by substrate addition and measured after 2 mins by absorbance based microplate reader.
Data set [9] has as its target T2, Cholinesterase. The data set is described as follows: Inhibition of human BChE using butyrylthiocholine iodide as substrate preincubated for 5 mins followed by substrate addition and measured after 2 mins by absorbance based microplate reader.

T1 sequence (P22303 whole entry): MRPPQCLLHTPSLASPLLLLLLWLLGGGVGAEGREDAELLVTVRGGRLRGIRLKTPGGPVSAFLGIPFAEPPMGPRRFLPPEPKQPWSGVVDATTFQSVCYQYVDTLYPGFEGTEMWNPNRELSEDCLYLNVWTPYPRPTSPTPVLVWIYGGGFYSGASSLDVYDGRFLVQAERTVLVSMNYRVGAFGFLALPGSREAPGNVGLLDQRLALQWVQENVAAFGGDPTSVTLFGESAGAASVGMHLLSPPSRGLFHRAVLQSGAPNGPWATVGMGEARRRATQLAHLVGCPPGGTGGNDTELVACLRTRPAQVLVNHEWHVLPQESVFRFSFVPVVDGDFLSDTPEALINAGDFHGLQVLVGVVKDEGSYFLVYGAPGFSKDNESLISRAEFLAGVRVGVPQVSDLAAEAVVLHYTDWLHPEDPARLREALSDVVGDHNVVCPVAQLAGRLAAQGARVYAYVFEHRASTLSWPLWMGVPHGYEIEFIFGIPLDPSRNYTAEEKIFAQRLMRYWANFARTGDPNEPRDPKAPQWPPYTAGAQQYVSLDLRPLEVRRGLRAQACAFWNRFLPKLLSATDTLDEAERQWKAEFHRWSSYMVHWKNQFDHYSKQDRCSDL
T2 sequence (P06276 whole entry): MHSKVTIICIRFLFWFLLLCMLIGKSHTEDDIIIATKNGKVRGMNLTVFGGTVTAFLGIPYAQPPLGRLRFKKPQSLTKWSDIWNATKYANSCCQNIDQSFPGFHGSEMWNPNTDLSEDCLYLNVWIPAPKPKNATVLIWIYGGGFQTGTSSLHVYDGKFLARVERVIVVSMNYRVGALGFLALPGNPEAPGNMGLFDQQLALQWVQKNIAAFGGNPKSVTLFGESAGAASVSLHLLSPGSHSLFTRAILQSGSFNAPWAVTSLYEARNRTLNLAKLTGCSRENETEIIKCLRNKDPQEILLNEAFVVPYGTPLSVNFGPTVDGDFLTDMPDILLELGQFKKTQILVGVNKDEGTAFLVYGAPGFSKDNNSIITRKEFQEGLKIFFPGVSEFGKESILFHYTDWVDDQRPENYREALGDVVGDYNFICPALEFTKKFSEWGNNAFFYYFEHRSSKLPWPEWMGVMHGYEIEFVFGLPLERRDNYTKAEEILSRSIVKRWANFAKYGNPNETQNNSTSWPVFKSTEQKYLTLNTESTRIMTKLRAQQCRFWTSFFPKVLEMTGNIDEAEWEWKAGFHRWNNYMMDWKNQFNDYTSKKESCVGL

Usually IC50 stands for the midpoint of a concentration-inhibition curve. As to `CCCNC(C)C(=O)Nc1c(C)csc1-c1nc(-c2ccccc2)no1` (centres undefined), the IC50 in [1] is 0.102 µM; in data set [2], 33.2 µM; in data set [3], 1150 µM; in data set [4], 225 µM; in data set [5], 380 µM. The Ratio IC50 in data set [6] is 325; in data set [7], 1.01.

On to `CCCCOc1cc(-c2nc(C)no2)ccc1N`, for which the IC50 was found to be 0.016 µM in [1] and 47.6 µM in [2]. In addition, the result in [3] was inactive. For the same molecule, the “inhibition (INH)” value in data set [4] and in [5] was “Not Active” throughout. The figures for the Ratio IC50 in [6] and in [7] were 3010 and 1.01, respectively.

`Nc1ccc(-c2nc(-c3ccccc3N)no2)cc1`: the IC50 in [1] came to 0.201 µM; in [2], 85.6 µM. Besides, the outcome in data set [3] was inactive. In addition, the “inhibition (INH)” value in data set [4] and in [5] was “Not Active” each time. For the same molecule, in data set [6], the Ratio IC50 was determined as 427.

As to `CCCNC(C)C(=O)Nc1c(C)csc1-c1nc(C)no1` (centres undefined), the IC50 in data set [1] is 0.201 µM; in [2], 125 µM; in data set [5] it was 1260 µM. The outcome in data set [3] was inactive. Further, the “inhibition (INH)” value in data set [4] is “Not Active”. Further, in [6], the Ratio IC50 worked out at 622.

Take `CC(=NNC(=O)COc1ccccc1-c1nc(Cc2ccccc2)no1)c1nnn(-c2ccc(S(N)(=O)=O)cc2)c1C`: the inhibition result in data set [1] and in data set [2] was “inactive” in each case. Moreover, the outcome in [3] was inactive. In addition, the “inhibition (INH)” value in data set [4] and in data set [5] was “Not Active” in each case.

On to `CCCCOc1cc(-c2nc(-c3ccccc3)no2)ccc1N`, for which the IC50 in data set [1] came to 0.191 µM; in data set [2], 11.5 µM; in data set [3], 59.2 µM. The “inhibition (INH)” value in data set [4] and in [5] was “Not Active” in each case. Moreover, in [6], the Ratio IC50 was 60.3.

Consider `Cc1cc(NS(=O)(=O)c2ccc(-n3cc(COc4ccccc4-c4nc(Cc5ccccc5)no4)nn3)cc2)no1`, for which the IC50 was found to be 0.103 µM in data set [1] and 533 µM in data set [5]. For the same molecule, the inhibition result in data set [2] is “inactive”. For the same molecule, the outcome in data set [3] was inactive. Also, the “inhibition (INH)” value in [4] is “Not Active”. In data set [7], the Ratio IC50 was determined as 1.01.

Take `CCCNC(C)C(=O)Nc1c(C)csc1-c1nc(-c2ccccc2N)no1` (centres undefined): the IC50 in data set [1] was determined as 0.121 µM; in data set [2], 54.5 µM; in data set [3], 959 µM; in data set [4], 289 µM; in [5], 248 µM. For the same molecule, the Ratio IC50 was 449 in data set [6] and 1.01 in [7].

In the case of `Cc1cc(NS(=O)(=O)c2ccc(-n3cc(COc4ccccc4-c4nc(-c5ccc(C(F)(F)F)cc5)no4)nn3)cc2)no1`, the inhibition result in data set [1] and in data set [2] was “inactive” each time. In addition, in [3], the outcome was inactive. The “inhibition (INH)” value in data set [4] is “Not Active”. For the same molecule, the IC50 in data set [5] turned out to be 273 µM.

For the molecule `O=C1O[C@H]([C@@H](O)CO)C(O)=C1O` [ASCORBIC ACID], the half-maximal inhibitory concentration (IC50) in data set [3] stood at 74.5 µM.

As to `Cc1cc(=O)oc2cc(OCc3ccc(-c4noc([C@@H]5CCCN5)n4)cc3)ccc12`, the IC50 in data set [8] was found to be 77.6 µM; in data set [9], 8.17 µM.

For `CCCNC(C)C(=O)Nc1c(C)csc1-c1nc(Cc2ccccc2)no1` (centres undefined), the IC50 in data set [1] turned out to be 0.048 µM; in data set [2], 41.4 µM; in [3], 1350 µM; in data set [4], 74.7 µM; in data set [5], 197 µM. For the same molecule, the Ratio IC50 amounted to 856 in data set [6] and 1.01 in data set [7].

As to `OC(CCN1CCCCC1)(c1ccccc1)C1CC2C=CC1C2` (centres undefined) [BIPERIDEN HYDROCHLORIDE], the IC50 in data set [4] came to 266 µM.

As to `Cc1noc(-c2ccc(N)cc2)n1`, the figures for the IC50 in [1], in [2] and in data set [3] were 0.104 µM, 138 µM and 105 µM, respectively. Moreover, the “inhibition (INH)” value in [4] and in data set [5] was “Not Active” throughout. Moreover, the Ratio IC50 amounted to 1320 in data set [6] and 1.01 in data set [7].

For the molecule `CC(CCCCn1c(=O)c2c(ncn2C)n(C)c1=O)=NNC(=O)COc1ccccc1-c1nc(Cc2ccccc2)no1`, the inhibition entry in [1] and in data set [2] was “inactive” in each case. The result in data set [3] was inactive. Further, the “inhibition (INH)” value in data set [4] was “Not Active”. The same molecule showed an IC50 in data set [5] of 957 µM.

For the molecule `CC(CCCCn1c(=O)c2c(ncn2C)n(C)c1=O)=NNC(=O)COc1ccccc1-c1nc(-c2ccccc2)no1`, the IC50 in data set [1] is 0.094 µM; in data set [2] it was 15 µM. In data set [3], the outcome was inactive. Besides, the “inhibition (INH)” value in [4] and in [5] was “Not Active” each time. Moreover, the Ratio IC50 in data set [6] is 159; in data set [7], 1.01.

For the molecule `Cc1cc(NS(=O)(=O)c2ccc(NC(=O)COc3ccccc3-c3nc(-c4ccccc4)no3)cc2)no1`, the IC50 came out at 0.094 µM in [1] and 26.7 µM in data set [2]. For the same molecule, in data set [3], the result was inactive. The “inhibition (INH)” value in data set [4] and in data set [5] was “Not Active” throughout. The values for the Ratio IC50 in [6] and in data set [7] were 283 and 1.01, respectively.

For `Cc1cc(NS(=O)(=O)c2ccc(-n3cc(COc4ccccc4-c4nc(-c5ccccc5)no4)nn3)cc2)no1`, the IC50 worked out at 0.104 µM in data set [1], 26.1 µM in data set [2] and 56.7 µM in [3]. Besides, the “inhibition (INH)” value in [4] and in [5] was “Not Active” each time. The Ratio IC50 is 250 in data set [6] and 1.01 in data set [7].
